Results from patent US10385321B2, “MRP-14 targeting peptides and uses thereof” (priority 2016, dated 2019).
“Also recorded” adds a separate entry of the source. Where two headings read alike, the source gives them in different places. Positions of bridges follow the written chain, without caps; N, C: chain ends. Residues, ends and D or L forms follow the SMILES beside them. *: point of attachment. X1 = [N-]=[N+]=NC[C@H](NC(=O)CCC(=O)NCCCOCCOCCOCCCN*)C(=O)O

Legend:
MRP-14 [1] = target: T1, MRP-14 (Homo sapiens, UniProt P06702); test: SPR binding of peptides to immobilized His-tagged MRP-14; conditions: for SPR binding behaviour (in words): sensorgrams, immobilized MRP-14
T1 construct: purchased Novus Biologicals
T1 sequence (P06702 1-114): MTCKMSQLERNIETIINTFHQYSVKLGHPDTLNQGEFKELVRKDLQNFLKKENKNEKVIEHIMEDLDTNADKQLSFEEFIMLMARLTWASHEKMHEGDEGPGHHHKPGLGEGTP
Procedure: Shortlisted MRP-14 targeting peptides (MTPs) were synthesized with a GGGS spacer and C-terminal amidation (Genscript) and their binding affinities characterized by SPR using Biacore T100 (GE Healthcare). PBST (0.05% Tween 20), pH 7.4 containing […] ethylenediaminetetraacetic acid (EDTA) was used as the running buffer. NTA sensor chips (GE Healthcare) were charged with 0.5 mM NiCl2 solution for 2 minutes at a flowrate of 10 μL/min, then 10 μg/mL His-tagged MRP-14 was bound for 2 minutes at 10 μL/min. For testing affinity to MRP-8/14, untagged MRP-8 (Novus Biologicals) was premixed in a 1:1 ratio with His-tagged MRP-14 for 3 hours in the presence of 0.1 mM CaCl2. Peptides at concentrations ranging from 6.25 μM to 100 μM diluted in running buffer were then injected at 30 μL/min for 1 minute association followed by 1 minute dissociation. Affinity was calculated by fitting a saturation binding curve to the equilibrium response vs. peptide concentration graph.
Their binding affinity to MRP-14 was then quantified using surface plasmon resonance (SPR) with an NTA sensor chip. After charging with Ni^2+, His-tagged MRP-14 was immobilized on the chip.

[2] = test system: platelet thrombi in anticoagulated blood on collagen-coated capillaries; test: Ex vivo shear-induced thrombus formation in perfusion (flow) chamber; conditions: for effect on shear-induced thrombus formation: particles 50 μg/mL, arterial shear rate 600 s^−1, versus PBS only control
Procedure: A perfusion chamber (Portola Pharmaceuticals) was used to evaluate the effect of particles on thrombus formation time. Factor Xa inhibitor anticoagulated blood was labeled with […] Rhodamine 6G (Sigma-Aldrich) for 10 minutes. Particles were added at a final concentration of 50 μg/mL and then the blood perfused through human type III collagen-coated rectangular capillaries at an arterial shear rate of 600 s^−. Thrombus formation under flow was then visualized in real time and average fluorescence of platelet aggregation over time quantified.
Particles were added before perfusion at a concentration of 50 μg/mL, and visualization of thrombus formation was achieved through fluorescence signal from cells labeled with Rhodamine 6G (FIG. 5A). After imaging, average pixel intensity of platelet aggregates over time was quantified (FIG. 5B). […] This is a concern when using nanoparticles to target coagulation factors such as platelets and fibrin due to potential incorporation into the coagulation cascade and further aggregation, as illustrated by the use of such particles for mediating hemostasis.

MRP-8/14 = MRP-8/14 (Homo sapiens, UniProt P06702); test: biochemical
Procedure: Shortlisted MRP-14 targeting peptides (MTPs) were synthesized with a GGGS spacer and C-terminal amidation (Genscript) and their binding affinities characterized by SPR using Biacore T100 (GE Healthcare). PBST (0.05% Tween 20), pH 7.4 containing 50 ethylenediaminetetraacetic acid (EDTA) was used as the running buffer. NTA sensor chips (GE Healthcare) were charged with 0.5 mM NiCl2 solution for 2 minutes at a flowrate of 10 μL/min, then 10 μg/mL His-tagged MRP-14 was bound for 2 minutes at 10 μL/min. […] Peptides at concentrations ranging from 6.25 μM to 100 μM diluted in running buffer were then injected at 30 μL/min for 1 minute association followed by 1 minute dissociation. Affinity was calculated by fitting a saturation binding curve to the equilibrium response vs. peptide concentration graph.

MRP-14 [3] = target: T1, MRP-14; test: Phage ELISA on MRP-14-coated plates; type: binding; conditions: BSA as background
Procedure: Phage specificity for MRP-14 was verified by performing an ELISA. Polysorp 96-well plates (Nunc) were coated with 50 μL of 50 μg/mL MRP-14 in 0.1 M NaHCO3, pH 8.6 in a humidified chamber overnight at 4° C. The coated wells and additional wells for phage dilutions were blocked with 5 mg/mL BSA in 0.1 M NaHCO3, pH 8.6 for 1 hour at 4° C. After washing 6 times with TBST (0.5% Tween 20), 8 serial fourfold dilutions from 10^12 phages/mL down to 6×10^7 phages/mL were performed in blocked wells then 100 μL of the phages added to MRP-14-coated wells and incubated for 1 hour at room temperature. […] Finally, HRP activity was detected using 100 μL 2,2′-azino-bis(3-ethylbenzothiazoline-6-sulfonic acid) diammonium salt (ABTS) colorimetric substrate solution (Life Technologies) at room temperature for 30 minutes. Absorbance was measured at 410 nm using a Tecan Infinite 200 plate reader
To narrow down the peptide library to the ones with highest affinity, an enzyme-linked immunosorbent assay (ELISA) was performed with the isolated phages. […] Bound phage was detected using horseradish peroxidase (HRP)-labeled anti-M13 antibodies followed by addition of 2,2′-azino-bis(3-ethylbenzothiazoline-6-sulfonic acid) diammonium salt (ABTS) substrate (FIG. 1). […]

[4] = test system: thrombi in carotid artery; test: Photochemical injury mouse model of thrombosis, Maestro fluorescence imaging of carotid arteries; type: in vivo, C57BL/6 mice; conditions: sCy5-labeled particles 200 μg i.v. before injury; n=3; contralateral artery as control
Procedure: 8-9 week old male C57BL/6 mice were anesthetized by intraperitoneal injection of 62.5 mg/kg sodium pentobarbital. After anesthesia, peptide-targeted and untargeted TMV particles (200 μg/100 μL) were injected intravenously followed by dissection of the mice to expose the right common carotid artery. Rose Bengal dye (10 mg/mL in PBS) was then administered via tail vein injection and a 540 nm green laser light (1.5 mW, Melles Griot) placed 5 cm from the artery was used to stimulate photochemical injury and induce thrombus formation. A Doppler flow probe (Transonic Systems) was placed under the artery and used to monitor blood flow. The mice were sacrificed after vessel occlusion. The artery and the contralateral control were excised and fixed in formalin, then imaged by Maestro fluorescence imaging to determine targeting of the particles (see below).
(§1) The red fluorescence from sCy5 was imaged using Maestro imager, with 800 ms exposure time for the arteries and 400 ms exposure time for the organs. The signal was filtered with 576 to 621 nm excitation and 635-nm longpass emission filters.
Progressing to the mouse model, the particles were first injected intravenously, then thrombosis was induced through photochemical injury of the carotid artery, specifically through reactive oxygen species formation from the reaction of green laser light with injected Rose Bengal dye. A flow probe was used to monitor the development of thrombosis, and the arteries along with their contralateral control were excised following occlusion of the vessel.

[5] = sCy5-labeled particles i.v.; brain, lungs, heart, kidneys, spleen, liver
Procedure: 8-9 week old male C57BL/6 mice were anesthetized by intraperitoneal injection of 62.5 mg/kg sodium pentobarbital. After anesthesia, peptide-targeted and untargeted TMV particles (200 μg/100 μL) were injected intravenously followed by dissection of the mice to expose the right common carotid artery. […] Additionally, to study the biodistribution of the particles, the brain, heart, lungs, kidneys, spleen, and liver were also excised and imaged with Maestro imager.
as §1
Biodistribution was investigated concurrently with the photochemical injury model. The brain, lungs, heart, kidneys, spleen, and liver were collected and particle clearance examined through Maestro imaging (FIG. 6A).

[6] = kinetic fitting, 390.625 nM to 12.5 μM of MTP6

Sequence of MRP-8/14 (P05109 whole entry partner, one chain of several): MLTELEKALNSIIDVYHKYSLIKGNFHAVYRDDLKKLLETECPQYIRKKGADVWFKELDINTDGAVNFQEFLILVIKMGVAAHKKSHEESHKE

Molecule CC(C)[C@@H]1NC(=O)[C@H](CO)NC(=O)[C@H](CC(N)=O)NC(=O)[C@@H](NC(=O)[C@H](C)N)CSSC[C@@H](C(=O)NCC(=O)NCC(=O)NCC(=O)N[C@@H](CO)C(=O)NCCCOCCOCCOCCCNC(=O)CCC(=O)N[C@@H](CN=[N+]=[N-])C(=O)O)NC(=O)[C@H](Cc2c[nH]cn2)NC(=O)[C@H](Cc2c[nH]cn2)NC(=O)[C@H](CCC(N)=O)NC(=O)[C@H](Cc2c[nH]cn2)NC1=O [MTP6-N3] (H-ACNSVHQHHCGGGS-X1; disulfide 2-10; N-terminus assumed) has a Kd (MRP-14 [1]; saturation binding curve fit of equilibrium response, peptides 6.25 μM to 100 μM, NTA chip, read-out: Kd (dissociation constant from SPR measurements with MRP-14)) of 55.7 µM.

With CC(C)[C@@H]1NC(=O)[C@H](CO)NC(=O)[C@H](CC(N)=O)NC(=O)[C@@H](NC(=O)[C@H](C)N)CSSC[C@@H](C(=O)NCC(=O)NCC(=O)NCC(=O)N[C@@H](CO)C(N)=O)NC(=O)[C@H](Cc2c[nH]cn2)NC(=O)[C@H](Cc2c[nH]cn2)NC(=O)[C@H](CCC(N)=O)NC(=O)[C@H](Cc2c[nH]cn2)NC1=O [MTP6] (H-ACNSVHQHHCGGGS-NH2; disulfide 2-10 (inferred); N-terminus assumed) the Kd (MRP-14 [1]) was 39.6 µM, the “effect on shear-induced thrombus formation” value [2] was “does not appear to block involvement of MRP-14 in thrombosis” and the Kd (MRP-8/14) was 57.6 µM.

In the case of CC(C)C[C@@H]1NC(=O)CNC(=O)[C@H]([C@@H](C)O)NC(=O)[C@@H]2CCCN2C(=O)[C@@H](NC(=O)[C@H](C)N)CSSC[C@@H](C(=O)NCC(=O)NCC(=O)NCC(=O)N[C@@H](CO)C(N)=O)NC(=O)[C@H](C)NC(=O)[C@H](Cc2c[nH]cn2)NC(=O)[C@H](Cc2c[nH]cn2)NC1=O [MTP9] (H-ACPTGLHHACGGGS-NH2; disulfide 2-10 (inferred); N-terminus assumed), the “SPR binding behaviour (in words)” value (MRP-14 [1]) is reported as “quick initial interaction followed by a slower binding phase”.

With C[C@H](N)C(=O)N[C@H]1CSSC[C@@H](C(=O)NCC(=O)NCC(=O)NCC(=O)N[C@@H](CO)C(=O)O)NC(=O)[C@H](CO)NC(=O)[C@H](Cc2c[nH]cn2)NC(=O)[C@H](CC(N)=O)NC(=O)[C@H](CC(N)=O)NC(=O)[C@H](CCCCN)NC(=O)[C@@H]2CCCN2C(=O)[C@H](CCCNC(=N)N)NC1=O [MTP10] the “SPR binding behaviour (in words)” value (MRP-14 [1]) was “did not really associate with MRP-14” and the “phage binding to MRP-14 (in words)” value (MRP-14 [3]) was “one of the best peptides”.

For “MDPHAHNGGGS [Scrambled, reference compound]”, the “Kd (dissociation constant from SPR measurements with MRP-14)” value (MRP-14 [1]; saturation binding curve fit of equilibrium response, peptides 6.25 μM to 100 μM, NTA chip) was “no” and the “SPR binding behaviour (in words)” value (MRP-14 [1]) was “low non-specific binding”.

B1: TMV-MTP6: MTP6-N3 attached to the exterior of tobacco mosaic virus by CuAAC, approximately 400 MTP6 per particle; sCy5-labeled for imaging (conjugate)
peptide: ACNSVHQHHCGGGS
chain: SYSITTPSQFVFLSSAWADPIELINLCTNALGNQFQTQQARTVVQRQFSEVWKPSPQVTVRFPDSDFKVYRYNAVLDPLVTALLGAFDTRNRIIEVENQANPTTAETLDATRRVDDATVAIRSAINNLIVELIRGTGSYNRSSFESSSGLVWTSGPAT
In the case of B1, the Kd (MRP-14 [1]; kinetic curve fitting instead of equilibrium fit, read-out: Kd (dissociation constant from SPR measurements with MRP-14), kinetic fit) is reported as 0.754 µM, the “ka (association rate)” value (MRP-14 [1]; [6]) is reported as 909.6 M⁻¹ s⁻¹ and the “kd (dissociation rate)” value (MRP-14 [1]; [6]) is reported as 0.0006858 s⁻¹. For the same molecule, the “aggregation of particles in blood” value ([2]; ex vivo flow model) was “no aggregation observed”, the “effect on shear-induced thrombus formation” value [2] was “some delay in thrombus onset; also recorded: no stimulation of thrombosis; also recorded: no significant effect on thrombosis” and the “targeting of thrombi (fluorescence signal in injured artery)” value [4] was “some success with imaging thrombi; also recorded: targeting was observed; also recorded: targeted TMV-MTP6 attachment to the thrombi and no nonspecific accumulation in the contralateral, uninjured artery”. For the same molecule, the “biodistribution / route of clearance” value [5] was “clearance predominantly through the liver”.
